Assay results taken from paper PMC5656322, “BAK1 is involved in AtRALF1-induced inhibition of root cell expansion” (PLoS Genetics, 2017).
Where no end group is shown, it is not given here.

How the values were obtained:
[1] = system: AtPRP3, AtHRGP2, CPD and DWF4 genes; assay: Expression of hormone-responsive genes (RT-PCR, qRT-PCR); type: in vivo, Arabidopsis thaliana; conditions: bak1-1, bak1-3, bak1-4 mutants, 1 μM, 1 h
Description: Arabidopsis plants were grown for 10 days in vertical plates and then treated in liquid medium containing 1 μM AtRALF1 for 1 h at room temperature. Control plants were incubated under identical conditions in a peptide-free medium. The total RNA was isolated from the roots of Arabidopsis plants using TRIzol reagent according to the manufacturer’s instructions (Life Technologies). The cDNA was synthesized using the ImProm-II Reverse Transcription System (Promega) and 1 μg of RNA. An aliquot of cDNA (1.5 μl) was used as the template in the PCR reaction, which was performed for 29 cycles, unless indicated otherwise, using gene-specific primers (S1 Table). The glyceraldehyde 3-phosphate dehydrogenase (GAPDH) gene was used as an internal control. All experiments were repeated at least three times with independent biological replicates. The data shown are from one representative experiment.
The qRT-PCR analysis was performed using 10-fold-diluted cDNA, Maxima SYBR Green Rox/qPCR Master Mix (Thermo Scientific) and a StepOne Real-Time PCR System (Applied Biosystems). The glyceraldehyde 3-phosphate dehydrogenase (GAPDH) gene was used as an internal control. […] The threshold cycle (CT) was determined by the instrument, and the ΔΔCT method was used to calculate the fold change in each gene. […] Three replicates were analyzed for each biological sample, and two biological samples were analyzed. […]

BAK7 (BAK7-ECD) = assay: Yeast two-hybrid with BAK7-ECD; type: binding, Arabidopsis thaliana; conditions: yeast AH109, medium lacking Leu, Trp, His
Text: Fig 6 AtRALF1 interacts physically with BAK1 protein. (A) The active AtRALF1 peptide interacts with the extracellular domain (ECD) of BAK1 (BAK1-ECD) in yeast. The AtRALF1 protein fused to the GAL4 DNA-binding domain (AtRALF1-pGBKT7) was used as bait to test its interaction with the extracellular domain of the proteins fused to the GAL4 activation domain (pGADT7): BAK1 (BAK1-ECD), BAK7 (BAK7-ECD), BRI1 (BRI1-ECD) and FLS2 (FLS2-ECD). (B) Blueprint showing the truncated proteins from the extracellular domain of BAK1 tested in the two-hybrid assay. The extracellular domain of BAK1 comprises leucine zippers (LZ), 5 leucine rich-regions (LRRs) and a proline-rich region (pro-rich). (C) AtRALF1-pGBKT7 was used as bait to test its interaction with truncated proteins fused to the GAL4 activation domain (pGADT7). […] HA-BAK1-ECD was detected with an anti-HA antibody. AtRALF1 was detected with an anti-RALF antibody. […] BAK1-GFP was detected with an anti-GFP antibody. […]
The coding regions of the mature peptides AtRALF1 and AtRALF34 were amplified from Arabidopsis genomic DNA and fused to the GAL4 DNA-binding domain and the MYC epitope tag using the NdeI/BamHI sites in the pGBKT7 (Clontech) vector. […] The proteins fused to the HA and MYC epitope tags were detected by protein blotting. […]

[2] = system: Arabidopsis seedlings, rhizosphere; assay: Rhizosphere alkalinization, gel with pH indicator bromocresol purple; type: in vivo, Arabidopsis thaliana; conditions: wild-type and bak1 seedlings, 10 μM, 30 min, pH 5.7
Description: To analyze the rhizosphere alkalinization, seedlings were grown in plates for 7 days. To avoid damage to the roots, the medium was solidified with 12 g l^-1 Phytagel. Seedlings were transferred to plates containing the pH indicator bromocresol purple (pH 5.7) as described previously and treated with 10 μM AtRALF1 or water. Images were captured 30 min after transfer onto the gel indicator. The experiments were repeated at least three times using independent biological replicates. The data shown are from one representative experiment.

[3] = system: cytosolic Ca^2+ in Arabidopsis seedlings; conditions: from extra- and intracellular stores; ref [1],[11]; cited from earlier work

Substance: AtRALF1: root-specific RALF isoform in Arabidopsis; recombinant peptide hormone produced in E. coli (ATTKYISYQSLKRNSVPCSRRGASYYNCQNGAQANPYSRGCSKIARCRS; ends and bridges not checked; cysteine pairing not given here)
- up-regulation of AtRALF1-inducible genes [1]: None of the AtRALF1-inducible genes were up-regulated
- interaction with BAK7-ECD (Y2H complementation) (BAK7 (BAK7-ECD)): able to complement only the BAK1-ECD construct
- rhizosphere coloration (alkalinization) [2]: developed a purple coloration around the rhizosphere
- cytoplasmic Ca^2+ [3]: rapid increase in cytoplasmic Ca^2+
